According to patent US7144867B2, “Anticancer glycoside compounds” (priority 2004, dated 2006):

Tests used:
[1] = system: angiogenesis in the animal; assay: Treatment of animals, anti-angiogenic evaluation (Example 6); format: in vivo; settings: contemplated; range of appropriate doses
Experimental: Frondoside A or B is evaluated for anti-angiogenic (e.g., for research, drug screening or therapeutic purposes) in live animals. Animals (e.g., having or modeling a disease characterized by unwanted angiogenesis) are treated with a range of appropriate doses of Frondoside A or B. Exemplary dosages and dosage schedules include, but are not limited to, those described herein.

p27 = assay: Western blotting, p27 in AsPC-1 cells; format: cell-based, human; settings: 4 μg/mL (FIG. 5)
Experimental: (§1) Western blotting. Cells were seeded into flasks and cultured to 50% to 60% confluence for 24 hours. Cells were then placed in serum-free medium with or without 4 μg/mL frondoside A for periods of 0, 24, 48 and 72 hours respectively. Proteins were extracted from attached and floating cells in lysis buffer containing 4% SDS. Protein concentrations were determined using the bicinchoninic acid assay with BSA as standard. Western blotting was carried out. In brief, equal amounts of protein in the cell lysates were separated on 15% SDS-PAGE and the proteins were transferred onto nitrocellulose membranes. After blocking non-specific sites with dried milk, membranes were incubated with the appropriate dilution of primary antibody. Membranes were then incubated with a horseradish peroxidase conjugated secondary antibody. Proteins were detected using an enhanced chemiluminescence detection system.

[2] = system: DLD-1 (human colon adenocarcinoma); assay: cells; settings: for Percent Growth (Mean ± SEM, n = 2): 72-hour
Experimental: Test Substance and Concentration. Frondoside A (CBR-24) was dissolved in 100% DMSO and then diluted with sterile distilled water to obtain initial working solutions of 10000, 1000, 100, 10, and 1 μM in 40% DMSO. A 100-fold dilution was further made in culture media to generate final assay concentration of 100, 10, 1, 0.1 and 0.01 μM in 0.4% of DMSO.
Cell Line and Culture Media. The tumor cell line DLD-1 (human colon adenocarcinoma), obtained from American Type Culture Collection (ATCC CCL-221), was incubated in 95% air-5% CO2 gas mixture at 37° C. The culture medium used was RPMI 1640 with 10% fetal bovine serum, which was supplemented with 1% Antibiotic-Antimycotic.
(§2) Evaluation of anti-proliferation for test substances. Aliquots of 100 μl of cell suspension (about 2.5×10^3 cells/well) were placed in 96-well microtiter plates in an atmosphere of 5% CO2 at 37° C. […] Thus, the final concentration of DMSO was 0.4%. The Frondoside A was evaluated for possible inhibitory effects on cell proliferation at concentrations of 100, 10, 1, 0.1 and 0.01 μM. At the end of incubation, 20 μl of 90% alamarBlue reagent was added to each well for another 6 hour incubation before detection of cell viability by fluorescent intensity. Fluorescent intensity was measured using a Spectrafluor Plus plate reader with excitation at 530 nm and emission at 590 nm.
(§3) Determination of IC50, TGI and LC50. The measured results were calculated by the following formula: PG(%)=100%×(Mean Ftest−Mean Ftime0)/(Mean Fctrl−Mean Ftime0) If (Mean Ftest−Mean Ftime0)<0, then PG (%)=100%×(Mean Ftest−Mean Ftime0)/(Mean Ftime0−Mean Fblank) Where: • PG: percent growth • Mean Ftime0=The average of 2 measured fluorescent intensities of reduced alamarBlue at the time just before exposure of cells to the test substance. • Mean Ftest=The average of 2 measured fluorescent intensities of alamarBlue after 72-hour exposure of cells to the test substance. • Mean Fctrl=The average of 2 measured fluorescent intensities of alamarBlue after 72-hour incubation without the test substance. • Mean Fblank=The average of 2 measured fluorescent intensities of alamarBlue in medium without cells after 72-hour incubation.

Bax = assay: Western blotting, Bax in AsPC-1 cells; format: cell-based, human; settings: 4 μg/mL (FIG. 4)
Experimental: as §1

Bcl-2 = assay: Western blotting, Bcl-2 in AsPC-1 cells; format: cell-based, human; settings: 4 μg/mL, time-dependent (FIG. 4)
Experimental: as §1

caspase 3 = assay: Western blotting, caspase 3 in AsPC-1 cells; format: cell-based, human; settings: 4 μg/mL, time-dependent (FIG. 3)
Experimental: as §1

[3] = system: PC-3 (human prostate adenocarcinoma); assay: cells; settings: for Percent Growth (Mean ± SEM, n = 2): 72-hour
Experimental: Test Substance and Concentration. Frondoside A (FAS) was dissolved in 100% DMSO and then diluted with sterile distilled water to obtain initial working solutions of 1000, 300, 100, 30, and 10 μM in 40% DMSO. […]
Cell Line and Culture Media. The tumor cell line PC-3 (human prostate adenocarcinoma), obtained from American Type Culture Collection (ATCC CRL-1435), was incubated in air atmosphere of 5% CO2 at 37° C. The culture medium used was F-12K Nutrient Mixture (Kaighn's Modification) with 3% fetal bovine serum, which was supplemented with 1% Antibiotic-Antimycotic.
as §2, with “of” for “of 100,”, “10, 3,” for “10,”, “1, 0.3 and” for “1,”, “0.1” for “0.1 and 0.01”, “6-hour” for “6 hour”
as §3, with “was” for “were”

## COC1C(O)C(CO)OC(OC2C(O)COC(OC3C(C)OC(OC4C(OC5CCC6(C)C7CCC89C(=O)OC(C)(CCCC(C)C)C8C(OC(C)=O)CC9(C)C7=CCC6C5(C)C)OCC(OS(=O)(=O)[O-])C4O)C(OC4OCC(O)C(O)C4O)C3O)C2O)C1O.[Na+] [Frondoside A, 3-O-methyl-β-D-glucopyranosyl-(1→3)-β-D-xylopyranosyl-(1→4)-[β-D-xylopyranosyl-(1→2)]-β-D-quinovopyranosyl-(1→2)-4-O-sodium sulfate-β-D-xylopyranosyl-3-O-holost-7(8)-en-3β-ol-16β-O-acetate]
[1]
  angiogenesis in the animal: inhibits angiogenesis
p27
  expression of p27: not changed
[2]; 10 μM and 100 μM (≦50% of cell proliferation)
  growth inhibition of DLD-1 cells relative to the vehicle-treated control: significant growth inhibition
[2]; DLD-1, 0.01 μM
  Percent Growth (Mean ± SEM, n = 2): 93 ± 5%
[2]; DLD-1, 0.1 μM
  Percent Growth (Mean ± SEM, n = 2): 84 ± 11%
[2]; DLD-1, 1 μM
  Percent Growth (Mean ± SEM, n = 2): 79 ± 5%
[2]; DLD-1, 10 μM
  Percent Growth (Mean ± SEM, n = 2): 12 ± 0%
[2]; DLD-1, 100 μM
  Percent Growth (Mean ± SEM, n = 2): −79 ± 5%
[2]; DLD-1, semi-quantitative, nonlinear regression
  TGI (Total Growth Inhibition): 12 µM
[2]; read-out: IC50 (50% Inhibition Concentration), DLD-1, semi-quantitative, nonlinear regression
  IC50: 3.6 µM
[2]; read-out: LC50 (50% Lethal Concentration), DLD-1, semi-quantitative, nonlinear regression
  CC50: 41 µM
Bax
  concentrations of the pro-apoptotic protein Bax: increased
Bcl-2
  expression of Bcl-2: decreased expression
Caspase 3
  activation of caspase 3 (cleavage of procaspase 3): cleaved into products of lower molecular weight
[3]; PC-3, 0.1 μM
  Percent Growth (Mean ± SEM, n = 2): 98 ± 3%
[3]; PC-3, 0.3 μM
  Percent Growth (Mean ± SEM, n = 2): 103 ± 1%
[3]; PC-3, 1 μM
  Percent Growth (Mean ± SEM, n = 2): 98 ± 3%
[3]; PC-3, 3 μM
  Percent Growth (Mean ± SEM, n = 2): −98 ± 1%
[3]; PC-3, 10 μM
  Percent Growth (Mean ± SEM, n = 2): −97 ± 1%
[3]; PC-3, semi-quantitative, nonlinear regression
  TGI (Total Growth Inhibition): 1.7 µM
[3]; between 1 and 10 μM
  growth inhibition of PC-3 relative to the vehicle treated control group: significant growth inhibition
[3]; read-out: IC50 (50% Inhibition Concentration), PC-3, semi-quantitative, nonlinear regression
  IC50: 1.5 µM
[3]; read-out: LC50 (50% Lethal Concentration), PC-3, semi-quantitative, nonlinear regression
  CC50: 2 µM
